Values of other authors, collected in patent US8513407B2, “Process for the preparation of N-acyl-(epi)K5-amine-O-sulfate-derivatives and products thus obtained” (GLYCORES 2000 S.r.l., priority 2002, dated 2013).

Test system: HIV
Details: compared with K5-O-oversulfate and heparin

For K5-N,O-oversulfate, the anti-HIV activity is given as “more active than K5-O-oversulfate and much more active than heparin”.
